Read-outs that look alike come from different tables or passages of the source.
Columns and labels:
[1] = test system: NRF2 (NQO1 activity as marker for NRF2 activation), BEAS-2B cells; experiment: BEAS-2B NQO1 MTT Assay; assay type: cell-based; settings: EC50 of NQO1 specific activity induction, 48 hours incubation, read-out: EC50
Method in brief: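 BEAS-2B cells were exposed to compound for 48 h at 37° C, 5% CO2, then lysed. NQO1 activity was measured kinetically by MTT reduction at 570 nm over 30 minutes; EC50 came from 3-parameter fit of Delta OD/min versus log concentration.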

rats [2] = settings: rats on a choline-deficient L-amino acid-defined diet; cited from earlier work
[3] = test system: COPD macrophages and alveolar macrophages from cigarette smoke-exposed mice; settings: cited from earlier work
mice = settings: NRF2 wild-type vs KO mice after administration; cited from earlier work
rats [4] = settings: cerebral ischemia-reperfusion model; cited from earlier work

Q: Which EC50 ([1]; Homo sapiens) does the source give for `CC[C@@H]1CN(Cc2cc([C@@H](c3ccc4c(nnn4CC)c3C)C(C)(C)C(=O)N[C@@H](CCC(=O)O)C(=O)O)ccc2C)S(=O)(=O)c2ccccc2O1` [Example 209, (S)-2-((S)-3-(3-(((R)-4-ethyl-1,1-dioxido-3,4-dihydro-2H-benzo[b][1,4,5]oxathiazepin-2-yl)methyl)-4-methylphenyl)-3-(1-ethyl-4-methyl-1H-benzo[d][1,2,3]triazol-5-yl)-2,2-dimethylpropanamido)pentanedioic acid] here?
A: The EC50 was 1 to 10 µM.

Q: For `CC[C@@H]1CN(Cc2cc([C@@H](c3ccc4c(nnn4CC)c3C)C(C)(C)C(=O)N[C@H](CCC(=O)O)C(=O)O)ccc2C)S(=O)(=O)c2ccccc2O1` [Example 210, (R)-2-((S)-3-(3-(((R)-4-ethyl-1,1-dioxido-3,4-dihydro-2H-benzo[b][1,4,5]oxathiazepin-2-yl)methyl)-4-methylphenyl)-3-(1-ethyl-4-methyl-1H-benzo[d][1,2,3]triazol-5-yl)-2,2-dimethylpropanamido)pentanedioic acid], which EC50 ([1]; Homo sapiens) is on record?
A: Its EC50 is 0.1 to 1 µM.

Q: For `CC[C@@H]1CN(Cc2cc([C@@H](c3ccc4c(nnn4CC)c3C)C(C)(C)C(=O)N[C@@H](CC(N)=O)C(=O)O)ccc2C)S(=O)(=O)c2ccccc2O1` [Example 211, (S)-4-amino-2-((S)-3-(3-(((R)-4-ethyl-1,1-dioxido-3,4-dihydro-2H-benzo[b][1,4,5]oxathiazepin-2-yl)methyl)-4-methylphenyl)-3-(1-ethyl-4-methyl-1H-benzo[d][1,2,3]triazol-5-yl)-2,2-dimethylpropanamido)-4-oxobutanoic acid], which EC50 ([1]; Homo sapiens) is on record?
A: The EC50 was 1 to 10 µM.

Q: For `CC[C@@H]1CN(Cc2cc([C@@H](c3ccc4c(nnn4CC)c3C)C(C)(C)C(=O)N[C@H](CC(N)=O)C(=O)O)ccc2C)S(=O)(=O)c2ccccc2O1` [Example 212, (R)-4-amino-2-((S)-3-(3-(((R)-4-ethyl-1,1-dioxido-3,4-dihydro-2H-benzo[b][1,4,5]oxathiazepin-2-yl)methyl)-4-methylphenyl)-3-(1-ethyl-4-methyl-1H-benzo[d][1,2,3]triazol-5-yl)-2,2-dimethylpropanamido)-4-oxobutanoic acid], which EC50 ([1]; Homo sapiens) is on record?
A: The EC50 was 0.1 to 1 µM.

Q: For `CC[C@@H]1CN(Cc2cc([C@@H](c3ccc4c(nnn4CC)c3C)C(C)(C)C(=O)N(CCC(=O)O)CC(=O)O)ccc2C)S(=O)(=O)c2ccccc2O1` [Example 213, 3-((S)-N-(carboxymethyl)-3-(3-(((R)-4-ethyl-1,1-dioxido-3,4-dihydro-2H-benzo[b][1,4,5]oxathiazepin-2-yl)methyl)-4-methylphenyl)-3-(1-ethyl-4-methyl-1H-benzo[d][1,2,3]triazol-5-yl)-2,2-dimethylpropanamido)propanoic acid], which EC50 ([1]; Homo sapiens) is on record?
A: The EC50 was 0.01 to 0.1 µM.

Q: For `O=C(NCc1ccccn1)Nc1nnc(-c2ccco2)o1` [NK-252], which “progression of histologic abnormalities, especially hepatic fibrosis” value (rats [2]) is on record?
A: The value was “significantly attenuated”.

Q: With `C[S+]([O-])CCCCN=C=S` (stereo not drawn) [Sulforaphane] as the compound, how does the “expression of Macrophage Receptor with Collagenous structure (MARCO)” value ([3]; COPD macrophages and alveolar macrophages from cigarette smoke-exposed mice) read?
A: The value was “increases”.

Q: What about the “bacterial phagocytosis and bacterial clearance” value ([3]; Pseudomonas aeruginosa, non-typable Haemophilus influenzae, ex vivo and in vivo) of the same compound?
A: Its value is “improving”.

Q: With `Cc1c(-c2cnccn2)ssc1=S` [oltipraz] as the compound, how does the “progression of histologic abnormalities, especially hepatic fibrosis” value (rats [2]) read?
A: Its value is “significantly attenuated”.

Q: Which cortical glutathione levels (mice) does the source give for `CC(C)(C)c1cc(O)ccc1O` [tBHQ, tert-butylhydroquinone] here?
A: The cortical glutathione levels was “increased in NRF2 wild-type but not KO mice”.

Q: What about the cortical damage (rats [4]) of the same compound?
A: The cortical damage was “reduced cortical damage”.

Q: For “(S)-3-(1,4-Dimethyl-1H-benzo[d][1,2,3]triazol-5-yl)-3-(3-(((R)-2-ethyl-2,3-dihydropyrido[3,44][1,4]oxazepin-4(5H)-yl)methyl)-4-methylphenyl)-2,2-dimethyl-N-(pyridin-3-yl)propanamide [Example 111]”, which EC50 [1] is on record?
A: Its EC50 is 0.1 to 1 µM.
